Tests used:
[1] = test system: anti-CD28 scFv (SEQ ID NO: 9); test: Octet bio-layer interferometry kinetic binding of anti-CD28 scFv to peptides; set-up: species or system human; settings: Octet RED96; biotinylated peptide loaded on streptavidin biosensor; anti-CD28 scFv in solution; 1:1 binding model
Procedure: (§1) Association and dissociation signals were recorded in real time and analyzed using a 1:1 binding model within the instrument software. Analysis using a 1:1 binding model enabled the calculation of the on and off rate constants as well as affinity, KD.
as §1

[2] = test system: anti-CD28 scFv; test: Phage binding ELISA (panning) of clonal phage on anti-CD28 scFv, with or without CD28 soluble protein; settings: for Phage binding ELISA Backgroud signal / Backgroud signal: clonal phage supernatant; for Phage binding ELISA Backgroud signal: background signal; for Phage binding ELISA CD28 scFv signal in presence of CD28: clonal phage supernatant on captured anti-CD28 scFv pre-incubated with CD28 soluble protein; for Phage binding ELISA CD28 scFv signal: clonal phage supernatant on captured biotinylated anti-CD28 scFv; for Backgroud signal: background wells
Method in brief: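 Wells pre-incubated with blocking buffer plus CD28 soluble protein or blocking buffer alone, then crude clonal phage supernatants added without washing for a short incubation. After washing, bound phage detected with HRP-conjugated anti-M13 antibody.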

Compound | kdis [1] [s⁻¹] | Phage binding ELISA Backgroud signal [2] | further results
CSCC[C@@H]1NC(=O)[C@H](CC(=O)O)NC(=O)[C@H](CCCNC(=N)N)NC(=O)[C@@H]2CCCN2C(=O)[C@@H](NC(=O)[C@H](Cc2c[nH]c3ccccc23)NC(=O)[C@H](CC(=O)O)NC(=O)[C@@H](N)CCSC)CSSC[C@@H](C(=O)N[C@@H](Cc2ccccc2)C(=O)N[C@@H](CO)C(=O)O)NC(=O)[C@H](C(C)C)NC(=O)[C@H](CO)NC(=O)[C@H](Cc2c[nH]c3ccccc23)NC1=O [Peptide-44] | 0.00812 |  | 
CSCC[C@H](N)C(=O)N[C@@H](Cc1c[nH]cn1)C(=O)N[C@@H](Cc1c[nH]c2ccccc12)C(=O)N[C@H]1CSSC[C@@H](C(=O)N[C@@H](Cc2ccc(O)cc2)C(=O)N[C@@H](CC(N)=O)C(=O)O)NC(=O)[C@H](CC(C)C)NC(=O)[C@H](Cc2ccc(O)cc2)NC(=O)[C@H](Cc2c[nH]c3ccccc23)NC(=O)[C@H](CC(C)C)NC(=O)[C@H](CC(=O)O)NC(=O)[C@H](C(C)C)NC(=O)[C@@H]2CCCN2C1=O [Peptide-49] | 0.00186 |  | 
CSCC[C@@H]1NC(=O)[C@H](CC(=O)O)NC(=O)[C@H](CCCNC(=N)N)NC(=O)[C@@H]2CCCN2C(=O)[C@@H](NC(=O)[C@H](Cc2c[nH]c3ccccc23)NC(=O)[C@H](CC(=O)O)NC(=O)[C@@H](N)CCSC)CSSC[C@@H](C(=O)N[C@@H](Cc2ccccc2)C(=O)N[C@@H](C)C(=O)O)NC(=O)[C@H](CCC(=O)O)NC(=O)[C@H](CC(=O)O)NC(=O)[C@H](Cc2c[nH]c3ccccc23)NC1=O [Peptide-42] | 0.00433 |  | 
CSCC[C@H](N)C(=O)N[C@@H](CC(=O)O)C(=O)N[C@@H](Cc1c[nH]c2ccccc12)C(=O)N[C@H]1CSSC[C@@H](C(=O)N[C@@H](Cc2ccccc2)C(=O)N[C@@H](CO)C(=O)O)NC(=O)[C@H](CC(C)C)NC(=O)[C@H](Cc2c[nH]cn2)NC(=O)[C@H](Cc2c[nH]c3ccccc23)NC(=O)[C@H](CC(C)C)NC(=O)[C@H](CC(=O)O)NC(=O)[C@H](CCCNC(=N)N)NC(=O)[C@@H]2CCCN2C1=O [Peptide-39] | 0.00265 |  | 
CSCC[C@H](N)C(=O)N[C@@H](CC(=O)O)C(=O)N[C@@H](Cc1c[nH]c2ccccc12)C(=O)N[C@H]1CSSC[C@@H](C(=O)N[C@@H](Cc2ccccc2)C(=O)N[C@@H](C)C(=O)O)NC(=O)[C@H](C(C)C)NC(=O)[C@H](Cc2c[nH]cn2)NC(=O)[C@H](Cc2c[nH]c3ccccc23)NC(=O)[C@H](CC(C)C)NC(=O)[C@H](Cc2ccc(O)cc2)NC(=O)[C@H](CCCNC(=N)N)NC(=O)[C@@H]2CCCN2C1=O [Peptide-48] | 0.00187 |  | 
CC[C@H](C)[C@@H]1NC(=O)[C@@H]2CCCN2C(=O)[C@@H](NC(=O)[C@H](Cc2c[nH]c3ccccc23)NC(=O)[C@H](CC(=O)O)NC(=O)[C@@H](N)CCSC)CSSC[C@@H](C(=O)N[C@@H](Cc2ccccc2)C(=O)N[C@@H](Cc2ccccc2)C(=O)O)NC(=O)[C@H](CCC(=O)O)NC(=O)[C@H](CC(N)=O)NC(=O)[C@H](Cc2c[nH]c3ccccc23)NC(=O)[C@H](CC(C)C)NC(=O)[C@H](CC(=O)O)NC1=O [Peptide-31] | 0.00369 |  | 
CSCC[C@H](N)C(=O)N[C@@H](CC(=O)O)C(=O)N[C@@H](Cc1c[nH]c2ccccc12)C(=O)N[C@H]1CSSC[C@@H](C(=O)N[C@@H](Cc2ccccc2)C(=O)N[C@@H](C)C(=O)O)NC(=O)[C@H](C(C)C)NC(=O)[C@H](CO)NC(=O)[C@H](Cc2c[nH]c3ccccc23)NC(=O)[C@H](CC(C)C)NC(=O)[C@H](Cc2c[nH]cn2)NC(=O)[C@H](C(C)C)NC(=O)[C@@H]2CCCN2C1=O [Peptide-50] | 0.00443 |  | 
CC[C@H](C)[C@@H]1NC(=O)[C@H](CC(=O)O)NC(=O)[C@H](CCCCN)NC(=O)[C@@H]2CCCN2C(=O)[C@@H](NC(=O)[C@H](Cc2c[nH]c3ccccc23)NC(=O)[C@H](CC(N)=O)NC(=O)[C@@H](N)CCSC)CSSC[C@@H](C(=O)N[C@@H](Cc2ccccc2)C(=O)N[C@@H](CC(N)=O)C(=O)O)NC(=O)[C@H](CC(C)C)NC(=O)[C@H](Cc2ccc(O)cc2)NC(=O)[C@H](Cc2c[nH]c3ccccc23)NC1=O [Peptide-34] | 0.00684 |  | 
CSCC[C@H](N)C(=O)N[C@@H](CC(=O)O)C(=O)N[C@@H](Cc1c[nH]c2ccccc12)C(=O)N[C@H]1CSSC[C@@H](C(=O)N[C@@H](Cc2ccccc2)C(=O)N[C@@H](C)C(=O)O)NC(=O)[C@H](CC(C)C)NC(=O)[C@H](CC(=O)O)NC(=O)[C@H](Cc2c[nH]c3ccccc23)NC(=O)[C@H](CC(C)C)NC(=O)[C@H](CC(=O)O)NC(=O)[C@H](CCCNC(=N)N)NC(=O)[C@@H]2CCCN2C1=O [Peptide-37] | 0.00351 |  | 
CC[C@H](C)[C@@H]1NC(=O)[C@@H]2CCCN2C(=O)[C@@H](NC(=O)[C@H](Cc2c[nH]c3ccccc23)NC(=O)[C@H](CC(=O)O)NC(=O)[C@@H](N)CCSC)CSSC[C@@H](C(=O)N[C@@H](Cc2ccccc2)C(=O)N[C@@H](CC(N)=O)C(=O)O)NC(=O)[C@H](CCC(=O)O)NC(=O)[C@H](CO)NC(=O)[C@H](Cc2c[nH]c3ccccc23)NC(=O)[C@H](CC(C)C)NC(=O)[C@H](Cc2ccc(O)cc2)NC1=O [Peptide-33] | 0.00153 |  | 
CSCC[C@H](N)C(=O)N[C@@H](CC(=O)O)C(=O)N[C@@H](Cc1c[nH]c2ccccc12)C(=O)N[C@H]1CSSC[C@@H](C(=O)N[C@@H](Cc2ccccc2)C(=O)N[C@@H](C)C(=O)O)NC(=O)[C@H](CCC(=O)O)NC(=O)[C@H](Cc2c[nH]cn2)NC(=O)[C@H](Cc2c[nH]c3ccccc23)NC(=O)[C@H](CC(C)C)NC(=O)[C@H](CO)NC(=O)[C@H](CCCNC(=N)N)NC(=O)[C@@H]2CCCN2C1=O [Peptide-47] | 0.00201 |  | 
Phage-168 (MDWCPKDLWHECFN) |  | 0.073 | 
Phage-74 (MDWCPRDMWLFCYN) |  | 0.097 | Phage binding ELISA CD28 scFv signal in presence of CD28 [2]: 1.023; Phage binding ELISA CD28 scFv signal ([2]; blocking buffer alone): 2.707
Phage-233 (MTWCPTSFWNRCLD) |  | 0.142 | 
Phage-97 (MDWCPKDLWDYCFA) |  |  | Backgroud signal ([2]; Phage binding ELISA): 0.078
Phage-271 (MDWCPTSFWNRCFH) |  | 0.102 | 
Phage-288 (MDWCPIALWDFCFA) |  | 0.073 | 
Phage-214 (MDWCPTYMWSECFN) |  | 0.086 | 
Phage-230 (APWCQIISGLECLT) |  | 0.080 | 
Phage-134 (MDWCPSYLWHECFA) |  |  | Backgroud signal ([2]; Phage binding ELISA): 0.096
Phage-255 (MDWCPRHLWSVCFN) |  | 0.064 | 
Phage-82 (MDWCPRDLWTECFA) |  | 0.060 | Phage binding ELISA CD28 scFv signal in presence of CD28 [2]: 0.151; Phage binding ELISA CD28 scFv signal ([2]; blocking buffer alone): 2.634
Phage-375 (MNWCPRALWHECFL) |  | 0.085 | 
Phage-207 (MDWCPRAMWHECFY) |  | 0.069 | 
Phage-235 (MDWCPRYLWHECFS) |  | 0.063 | 
Phage-93 (MDWCPRYLWTVCFS) |  |  | CD28 scFv signal in presence of CD28 ([2]; Phage binding ELISA, captured anti-CD28 scFv pre-incubated with CD28 soluble protein): 0.372; CD28 scFv signal ([2]; Phage binding ELISA, captured biotinylated anti-CD28 scFv, blocking buffer alone): 2.582; Backgroud signal ([2]; Phage binding ELISA): 0.115
Phage-176 (MDWCPSDLWHECFH) |  | 0.075 | 
Phage-194 (MDWCPSDMWHECYA) |  | 0.062 | 

From patent publication US20230357447A1, “TUMOR ACTIVATED MULTISPECIFIC ANTIBODIES FOR TARGETING CD28 AND PD-L1 AND METHODS OF USE THEREOF” (Janux Therapeutics, Inc., priority 2022, published 2023)
